# Test results: patent publication US11607419B2, “Inhibitors of RAC1 and uses thereof for inducing bronchodilatation” (INSTITUT NATIONAL DE LA SANTE ET DE LA RECHERCHE MEDICALE …, priority 2017, dated 2023)
# Entries after “also recorded” stand apart in the source; their conditions may differ.
# Experiments:
# [1] = target: T1, Rac-GTP (Rac1 activity) in NIH3T3 cells (Mus musculus, UniProt P63001); test: Rac activation: active Rac immunoprecipitation and immunoblot of Rac-GTP in fibroblasts stimulated by a Rac activator; type: cell-based; settings: pre-incubated 1 h
# T1 construct: endogenous in cells; host or cells: NIH3T3
# Protocol: (§1) Cell culture, transfection and actin staining. NIH3T3 cells grew up in DMEM (Gibco; Invitrogen) containing 10% foetal bovine serum, 100 units/mL penicillin and 100 μg/mL streptomycin at 37° C. and 5% CO2. The culture medium was changed every 72 hours.
# Analysis of Rac1 activity. In NIH3T3 cells lysates, Rac1 activity was evaluated by active Rac immunoprecipitation using anti-Rac-GTP antibody (26903, NewEast Biosciences). The precipitated active Rac was subjected to SDS-PAGE and detected by immunoblot with anti-Rac1 antibody (BD biosciences).
# RAC1 [2] = target: T2, RAC1 (Homo sapiens, UniProt P63000); test: Surface plasmon resonance on immobilised Rac1; type: binding
# Protocol: Surface plasmon resonance studies. SPR immobilization was performed at 25° C. Rac1, RhoA and Cdc42 purified proteins were diluted to 5 μg/mL in Na^+ acetate buffer (pH 5.0) and injected into sensor chip CM5 (GE Healthcare) in a Biacore T200 (GE Healthcare) that was activated with NHS/EDC buffer. Approximately 5,000 response units of the purified protein were captured on the biosensor chip. Biosensor chips were blocked by an injection of […] ethanolamine (pH 8.5). […] SPR analysis was performed at 25° C. in HBSEP running buffer (5% DMSO). When indicated, EDTA (20 mM) was added in running buffer.
# Rac2 = target: T3, Rac2 (Homo sapiens, UniProt P15153); test: Nucleotide exchange assay (mant-GTP/mant-GDP), Rac2; type: biochemical; settings: 10 μM
# T3 construct: Full-length human small GTPases carrying a 6-histidine tag fused to their C-terminus; 6-histidine tag (C); made in house; host or cells: E. coli
# From the text: (§2) Nucleotide exchange assays. Full-length human small GTPases carrying a 6-histidine tag fused to their C-terminus were expressed in E. coli and purified to homogeneity. Small GTPases were loaded with GDP or N-methylanthraniloyl-GDP (GDP/mant-GDP, JenaBiosciences) before nucleotide exchange kinetics experiments.
# (§3) Nucleotide exchange kinetics were monitored by fluorescence of the mant fluorophore (λexc=360 nm, λem=440 nm) or tryptophan fluorescence (for Arf6; λexc=280 nm, λem=[…]) using a Cary Eclipse fluorimeter (Varian, Toulouse, France) at 30° C. under stirring. All kinetics assays were carried out in a buffer containing 50 mM Tris at pH 8, 300 mM NaCl, 2 mM MgCl2, 1 mM DTT and were started by addition of 100 μM N-methylanthraniloy-GTP or GTP (mant-GTP/GTP, JenaBiosciences). Nucleotide exchange kinetics were carried out at a concentration of small GTPases of 1 μM, either without GEF for spontaneous exchange, in the presence of 50 nM GEF for single kobs (s-1) determination. The kobs was determined from single-exponential fit of the fluorescence change. All experiments were carried out at least in triplicate.
# RhoG = target: T4, RhoG (Homo sapiens, UniProt P84095); test: Nucleotide exchange assay, RhoG; type: biochemical; settings: 10 μM
# T4 construct: Full-length human small GTPases carrying a 6-histidine tag fused to their C-terminus; 6-histidine tag (C); made in house; host or cells: E. coli
# From the text: as §2, §3
# Rab35 = target: T5, Rab35 (Homo sapiens, UniProt Q15286); test: Nucleotide exchange assay, Rab35; type: biochemical; settings: 10 μM
# T5 construct: Full-length human small GTPases carrying a 6-histidine tag fused to their C-terminus; 6-histidine tag (C); made in house; host or cells: E. coli
# From the text: as §2, §3
# Arf6 = target: T6, Arf6 (Homo sapiens, UniProt P62330); test: Nucleotide exchange assay, Arf6; type: biochemical; settings: 10 μM
# T6 construct: Full-length human small GTPases carrying a 6-histidine tag fused to their C-terminus; 6-histidine tag (C); made in house; host or cells: E. coli
# From the text: as §2, §3
# [3] = tested on: Rac1-dependent ruffle formation in NIH3T3 cells; test: Rac activator-induced membrane ruffling (actin staining) in fibroblasts; type: cell-based
# Protocol: as §1
# After treatments, fibroblasts were fixed with 4% paraformaldehyde in PBS, permeabilized in PBS 0.5% Triton X-100, and incubated with 130 μg/mL of FITC-conjugated phalloidin (Sigma) to visualize F-actin. After staining, images were captured by a fluorescence microscope (Nikon). The actin cytoskeleton organization was analyzed to observe Rac1-dependent ruffle formation.
# 3T3 cells migration = test: Unidirectional cell migration; type: cell-based
# Protocol: Unidirectional cell migration. Cells (1000/well) were seeded in a 96 well plate with […] fibronectin stripes (CytooPlates Motility, CYTOO) in medium with 1% SVF and allowed to spread for 4 hours before capturing time-lapse images for 24 hours (image/10 minutes) on a Widefield Leica DMI 6000B drove with Metamorph software. Cells speed was measured with ImageJ software.
# fibroblast adhesion = test: Cell adhesion assay using impedance technology; type: cell-based; settings: fibroblasts
# Protocol: Cell adhesion assay using impedance technology. Cells (10000/well) were seeded in a 96 well plate microtiter xCELLigence assay plate (E-Plate) (ACEA Biosciences Inc.) and placed on the Real-time xCELLigence Cell Analyzer (Roche Applied Science) platform at 37° C. to measure the “cell index” every 5 min for a period of 6 hours. The cell index unit is defined as (Rn−Rb)/15. Rn is the cell electrode impedance of the well when it contains cells. Rb is the background impedance of the well with the media alone.
# [4] = tested on: murine bronchial rings (aSMC contraction); test: Airways reactivity ex vivo: methacholine contraction of bronchial rings; settings: bronchial rings from control mice, pre-incubated 1 h
# Protocol: Airways reactivity ex vivo. Murine primary bronchi were cleaned, cut in rings and mounted on a multichannel isometric myograph in Krebs-Henseleit physiological solution (118.4 mM NaCl, 4.7 mM KCl, 2 mM CaCl2, 1.2 mM MgSO4, 1.2 mM KH2PO4, 25 mM NaHCO3 and 11 mM glucose) at 37° C. under oxygen. A pre-tension of 0.5 mN was applied. We constructed dose-response curves to methacholine (Sigma). When indicated, rings were pre-incubated 1 h before contraction with (2) (or compound A4.1). The wire myograph was connected to a digital data recorder (MacLab/4e, AD Instruments) and recordings were analyzed using LabChart v7 software (AD Instruments).
# [5] = tested on: airway hyperresponsiveness; test: Airway responsiveness in vivo (whole-body plethysmography, methacholine); parameters: species or system mice; settings: mouse model of allergic asthma, acute nebulization (300 μl at 5 mM) 10 min before methacholine
# Protocol: Animals use and airways responsiveness measurement in vivo. All experimental procedures and animal care were performed in accordance with the European Community Standards on the Care and Use of Laboratory Animals and approved by the local ethics committee (Comité d'Ethique en Expérimentation Animale des Pays de Loire). Airway responsiveness was assessed in conscious, unrestrained mice using a barometric, whole-body plethysmography (EMKA Technologies) by recording respiratory pressure curves in response to inhaled methacholine (Sigma) at concentrations of 0-40 mg/ml for 1 min. Airway responsiveness was expressed in enhanced pause (Penh) units. The Penh values measured after stimulation were averaged and expressed as the fold-increase over baseline values. When required, the Rac inhibitor (2) was nebulised (300 μl at 5 mM) 10 min before methacholine challenge.
# RAC1 [6] = target: T2, RAC1
# RAC1 [7] = target: T2, RAC1; settings: compared with NSC23766
# RAC1 [8] = target: T2, RAC1; test: Nucleotide exchange assay (mant-GTP/mant-GDP), Rac1; type: biochemical; parameters: Full-length human small GTPases carrying a 6-histidine tag fused to their C-terminus; 6-histidine tag (C); made in house; host or cells: E. coli; settings: 10 μM
# From the text: as §2, §3
# RhoA = RhoA (Homo sapiens, UniProt P61586); test: Nucleotide exchange assay, RhoA; type: biochemical; parameters: Full-length human small GTPases carrying a 6-histidine tag fused to their C-terminus; 6-histidine tag (C); made in house; host or cells: E. coli; settings: 10 μM
# From the text: as §2, §3
# Chain of RhoA (P61586 whole entry, the tested form may be a part): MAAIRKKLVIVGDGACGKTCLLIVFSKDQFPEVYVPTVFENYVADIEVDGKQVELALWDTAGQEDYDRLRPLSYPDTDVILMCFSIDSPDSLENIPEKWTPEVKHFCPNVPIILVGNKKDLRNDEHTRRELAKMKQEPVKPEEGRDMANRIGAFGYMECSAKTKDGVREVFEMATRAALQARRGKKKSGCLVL
# T6 sequence (P62330 whole entry, the tested form may be a part): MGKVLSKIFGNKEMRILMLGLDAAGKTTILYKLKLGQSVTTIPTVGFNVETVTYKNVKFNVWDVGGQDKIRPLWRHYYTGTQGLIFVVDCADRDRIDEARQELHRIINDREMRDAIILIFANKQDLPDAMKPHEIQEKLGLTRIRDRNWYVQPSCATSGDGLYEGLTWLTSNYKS
# T5 sequence (Q15286 whole entry, the tested form may be a part): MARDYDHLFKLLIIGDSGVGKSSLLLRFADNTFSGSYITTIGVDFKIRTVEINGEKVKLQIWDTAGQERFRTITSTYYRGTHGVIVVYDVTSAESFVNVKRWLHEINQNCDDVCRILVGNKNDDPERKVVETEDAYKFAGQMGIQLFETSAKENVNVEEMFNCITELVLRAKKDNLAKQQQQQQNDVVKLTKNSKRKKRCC
# T4 sequence (P84095 whole entry, the tested form may be a part): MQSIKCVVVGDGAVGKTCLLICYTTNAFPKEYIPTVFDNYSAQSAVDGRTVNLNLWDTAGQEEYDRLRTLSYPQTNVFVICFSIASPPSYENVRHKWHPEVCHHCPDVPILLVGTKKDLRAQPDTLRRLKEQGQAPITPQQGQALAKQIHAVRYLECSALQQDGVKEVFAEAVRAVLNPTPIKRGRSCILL
smiles,measurement,setting,value
"COc1ccc(OC)c(NS(=O)(=O)c2ccc(NC(=O)CCSc3ccc(C)cc3)cc2)c1 [Compound (2), N-(4-(N-(2,5-dimethoxyphenyl)sulfamoyl)phenyl)-3-(p-tolylthio)propanamide]",Rac activation (Rac-GTP level) by a Rac activator,[1],prevented
same,SPR binding to Rac1,RAC1 [2]; 0.78-25 μM injected,binds Rac1
same,SPR interaction with Rac1 nucleotide free,RAC1 [2]; EDTA in running buffer,significantly increased
same,Bmax GTP-binding on Rac2,Rac2,decreased
same,nucleotide exchange kinetics of RhoG,RhoG,did not alter
same,nucleotide exchange kinetics of Rab35,Rab35,did not alter
same,nucleotide exchange kinetics of Arf6,Arf6,did not alter
same,IC50,"[3]; Mus musculus, NIH3T3, fibroblasts, dose-dependent inhibition",0.67 nM
same,efficiency of Rac activator to induce ruffle,[3]; added 1 h before Rac activation,blocks; also recorded: strongly decreased
same,migration inhibition compared with NSC23766,3T3 cells migration,higher inhibition
same,migration rate of the cells,3T3 cells migration,decreases; also recorded: slow down
same,adhesion inhibition compared with NSC23766,fibroblast adhesion,higher inhibition
same,adhesion rate of the cells,fibroblast adhesion; 10 μm,decreases; also recorded: slow down
same,maximal contraction induced by methacholine,[4],dose-dependent reduced
same,airway hyperresponsiveness (AHR),[5],prevented
same,IC50,RAC1 [6],1 nM
same,melting point,,136 °C
same,Relative activity (NSC23766),RAC1 [7],>
same,Bmax GTP-binding on Rac1,RAC1 [8],decreased
same,nucleotide exchange kinetics of RhoA,RhoA,did not alter
